The target of one data set is IMP-1 (Serratia marcescens, UniProt P52699). The data set can be described thus: Enzymatic assay for determination of inhibition constants, reporter substrate method, purified IMP-1.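 For all read-outs here: purified IMP-1 (1-70 nM) hydrolysing a reporter substrate, initial rates followed as absorbance change at 260, 300 or 482 nm in 50 mM HEPES pH 7.5.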 The format is biochemical. Particulars: for Ki: isolated MBL, competitive inhibition model.
In a further data set the target is VIM-2 (Escherichia coli, UniProt Q5U7L7). Put plainly: Enzymatic assay for determination of inhibition constants, reporter substrate method, purified VIM-2.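 For all read-outs here: purified VIM-2 hydrolysing a reporter substrate (imipenem, meropenem, cefotaxime or nitrocefin), reaction rate read as absorbance change, HEPES 50 mM at pH 7.5.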 Particulars: for Ki: isolated MBL, competitive inhibition model, read-out: Ki VIM-2. The format is biochemical.
Another data set has as its target VIM-4 (Pseudomonas aeruginosa, UniProt Q8KRJ3). Put plainly: Enzymatic assay for determination of inhibition constants, reporter substrate method, purified VIM-4.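 Note: purified VIM-4 (1-70 nM) in 50 mM HEPES pH 7.5, reporter substrate hydrolysis rate tracked by absorbance change (nitrocefin 482 nm, imipenem or meropenem 300 nm, cefotaxime 260 nm).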 The format is biochemical. Particulars: at 100 μM (maximal tested concentration).
The target in the next data set is NDM-1 (Klebsiella pneumoniae, UniProt C7C422). The data set can be described thus: Enzymatic assay for determination of inhibition constants, reporter substrate method, purified NDM-1.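 For all read-outs here: purified enzyme activity followed as absorbance change from reporter substrate hydrolysis on a UV-Vis spectrophotometer or plate reader, 50 mM HEPES pH 7.5.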 The format is biochemical. The conditions noted are these: for Ki: isolated MBL, competitive inhibition model.
Sequence of NDM-1 (C7C422 29-270, looked up, species assumed): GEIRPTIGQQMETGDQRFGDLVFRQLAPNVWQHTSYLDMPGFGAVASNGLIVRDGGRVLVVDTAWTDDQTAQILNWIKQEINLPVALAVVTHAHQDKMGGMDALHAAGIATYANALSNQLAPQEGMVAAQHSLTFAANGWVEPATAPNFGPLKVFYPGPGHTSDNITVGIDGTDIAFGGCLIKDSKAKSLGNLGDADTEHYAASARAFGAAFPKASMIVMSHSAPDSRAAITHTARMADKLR
The target of another data set is VIM-1 (Pseudomonas aeruginosa, UniProt A0A0F7KYQ8). Put plainly: Enzymatic assay for determination of inhibition constants, reporter substrate method, purified VIM-1.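 Note: initial hydrolysis rates of a reporter β-lactam (imipenem, meropenem, cefotaxime or nitrocefin) followed by absorbance change, purified enzyme at 1–70 nM in 50 mM HEPES pH 7.5.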 The format is biochemical. Particulars: isolated MBL, competitive inhibition model.
Data set [1] has as its system K. pneumoniae S1-002 (blaVIM-4+). The data set can be described thus: Broth microdilution MIC of meropenem in absence and presence of MBL inhibitor, S1-002. The conditions noted are these: MBL inhibitor fixed at 32 μg/ml, Mueller-Hinton broth, duplicate. The format is cell-based. For orientation: Broth dilution looks for growth in wells or tubes with falling amounts of substance.
Method: (§1) This method was performed in agreement with the CLSI recommendations (document M07-A10, 2015, “Methods for Dilution Antimicrobial Susceptibility Tests for Bacteria That Grow Aerobically”).
(§2) MIC values of meropenem (MEM) were determined in duplicate in Mueller-Hinton broth as recommended by CLSI (document M07-A10, 2015), in absence and presence of a fixed concentration of MBL inhibitor (32 μg/ml).

Data set [2] relates to K. pneumoniae SI-001 (blaVIM-1+). Put plainly: Broth microdilution MIC of meropenem in absence and presence of MBL inhibitor, SI-001. The conditions noted are these: MBL inhibitor fixed at 32 μg/ml, Mueller-Hinton broth, duplicate. The format is cell-based.
Method: as §1, §2
Where [3] appears, read: at 100 μM (maximal tested concentration).
The mark [4] stands for this setting: at 200 μM (maximal tested concentration).

Some results are limits rather than exact numbers.

In general, Ki refers to a measure of affinity in units of concentration, obtained from inhibition or displacement. In general, melting point refers to the temperature, or range, at which the solid turns liquid.

Sequence of IMP-1 (P52699 19-246, looked up, species assumed): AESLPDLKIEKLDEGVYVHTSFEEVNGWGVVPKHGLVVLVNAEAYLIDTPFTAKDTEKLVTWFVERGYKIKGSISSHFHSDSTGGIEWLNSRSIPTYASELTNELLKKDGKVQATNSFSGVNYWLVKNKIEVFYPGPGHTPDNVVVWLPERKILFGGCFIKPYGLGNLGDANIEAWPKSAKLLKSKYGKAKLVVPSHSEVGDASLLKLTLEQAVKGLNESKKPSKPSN
Method for IMP-1: (§3) The reaction rate was measured as the variation of absorbance observed upon substrate hydrolysis in a UV-Vis spectrophotometer or microplate reader at a wavelength of 300 nm (imipenem, meropenem), 260 nm (cefotaxime) or 482 nm (nitrocefin) in 50 mM HEPES buffer (pH 7.5) and in the presence of a purified MBL enzyme (such as VIM-1, VIM-2, VIM-4, NDM-1 and IMP-1, at a final concentration ranging 1-70 nM).
(§4) The inhibition constants (Ki) were determined on the basis of a model of competitive inhibition by analyzing the dependence of the ratio v0/vi (v0, hydrolysis velocity in the absence of inhibitor; vi, hydrolysis velocity in the presence of inhibitor) as a function of [I] as already described [Docquier J. D., Lamotte-Brasseur J., Galleni M., Amicosante G., Frère J. M., Rossolini G. M. (2003) J. Antimicrob. […] The slope of the plot of v0/vi vs [I], which corresponds to Km^S/(Km^S+[S])Ki (where Km^S is the Km value of the reporter substrate and [S] its concentration in the reaction mixture) and allowed the calculation of the Ki value. Alternatively, a Dixon plot analysis was carried out, by measuring the initial hydrolysis rates in the presence of variable concentrations of inhibitor and substrate.
Method for NDM-1: as §3, §4
Method for VIM-2: as §3, §4

The compound `COc1ccc(O)c(-c2n[nH]c(=S)n2CCCC(=O)O)c1` [Compound 18, 4-[3-(2-hydroxy-5-methoxyphenyl)-5-sulfanylidene-4,5-dihydro-1H-1,2,4-triazol-4-yl]butanoic acid] yielded a melting point of 155 to 156 °C. The compound also yielded a Ki on IMP-1 greater than 100 µM. Also, the Ki at VIM-2 was 1 to 10 µM. Besides, at VIM-4, the “% inhibition VIM-4” value was determined as 90% at 100 μM. Moreover, the Ki at NDM-1 is greater than 100 µM. Further, the Ki at VIM-1 is greater than 100 µM.

Turning to `O=C(O)CCCn1c(-c2ccc3ccccc3c2)n[nH]c1=S` [Compound 19, 4-[3-(naphthalen-2-yl)-5-sulfanylidene-4,5-dihydro-1H-1,2,4-triazol-4-yl]butanoic acid], the melting point was 220 to 221 °C. Also, the Ki on IMP-1 was greater than 100 µM. Further, the Ki on VIM-2 fell in the range of 1 to 10 µM. At VIM-4, the “% inhibition VIM-4” value came out at 75% at 100 μM. The compound also came in with a Ki at NDM-1 greater than 100 µM. Also, the Ki at VIM-1 was greater than 100 µM.

For the compound `S=c1[nH]nc(-c2ccccc2)n1CCSCCc1ccccc1` [Compound 77, 4-[2-(2-Phenylethylsulfanyl)ethyl]-3-phenyl-4,5-dihydro-1H-1,2,4-triazole-5-thione], the “% inhibition IMP-1” value on IMP-1 (setting [3]) worked out at 89% at 100 μM. In addition, the Ki on VIM-2 was 1 to 10 µM; at VIM-1, less than 1 µM. In addition, the “MIC potentiation of meropenem (x.log2 dilutions), K. pneumoniae S1-002 (blaVIM-4+)” value in data set [1] was no less than 4 log2 dilutions. The “MIC potentiation of meropenem (x.log2 dilutions), K. pneumoniae SI-001 (blaVIM-1+)” value in data set [2] stood at 3 log2 dilutions. Also, on NDM-1 (setting [3]), the “% inhibition NDM-1” value is listed as 92% at 100 μM.

In the case of `O=[N+]([O-])c1ccc(CSCCn2c(-c3ccccc3)n[nH]c2=S)cc1` [Compound 74, 4-[2-(4-Nitrobenzylsulfanyl)ethyl]-3-phenyl-4,5-dihydro-1H-1,2,4-triazole-5-thione], the “% inhibition IMP-1” value at IMP-1 (setting [3]) is listed as 92% at 100 μM. Further, the Ki on VIM-2 was 1 to 10 µM; on VIM-1, less than 1 µM. The “MIC potentiation of meropenem (x.log2 dilutions), K. pneumoniae S1-002 (blaVIM-4+)” value in data set [1] was no less than 4 log2 dilutions. Also, in data set [2], the “MIC potentiation of meropenem (x.log2 dilutions), K. pneumoniae SI-001 (blaVIM-1+)” value came out at 3 log2 dilutions. Moreover, the “% inhibition NDM-1” value on NDM-1 (setting [3]) is reported as 95% at 100 μM.

The compound `O=C(O)CCCCn1c(-c2ccc3ccccc3c2)n[nH]c1=S` [Compound 30, 5-[3-(naphthalen-2-yl)-5-sulfanylidene-4,5-dihydro-1H-1,2,4-triazol-4-yl]pentanoic acid] had a melting point of 170 to 171 °C. In addition, the “% inhibition IMP-1” value at IMP-1 (setting [4]) is recorded as 60% at 200 μM. In addition, the Ki on VIM-2 lay in the range of 1 to 10 µM. For the same compound, the “% inhibition VIM-4” value at VIM-4 turned out to be 80% at 100 μM. Also, at NDM-1, the Ki was greater than 100 µM.

Consider `O=C(O)CC1(Cn2c(-c3ccccc3)n[nH]c2=S)CCCCC1` [Compound 17, 2-{1-[(3-phenyl-5-sulfanylidene-4,5-dihydro-1H-1,2,4-triazol-4-yl)methyl]cyclohexyl}acetic acid], for which the melting point lay in the range of 80 to 81 °C. The Ki at IMP-1 is greater than 100 µM. In addition, the Ki at VIM-2 is 1 to 10 µM. In addition, at VIM-4, the “% inhibition VIM-4” value worked out at 60% at 100 μM. This compound gave a Ki at NDM-1 greater than 100 µM.

`Cc1ccccc1-c1n[nH]c(=S)n1CCSCc1ccccc1` [Compound 80, 4-[2-(Benzylthio)ethyl]-5-(o-tolyl)-2,4-dihydro-1,2,4-triazole-3-thione]: the Ki on IMP-1 is 10 to 100 µM; on VIM-2 it was less than 1 µM; on NDM-1, 10 to 100 µM; on VIM-1, less than 1 µM. In data set [1], the “MIC potentiation of meropenem (x.log2 dilutions), K. pneumoniae S1-002 (blaVIM-4+)” value stood at 3 log2 dilutions. The “MIC potentiation of meropenem (x.log2 dilutions), K. pneumoniae SI-001 (blaVIM-1+)” value in data set [2] was 2 log2 dilutions.

`O=C(O)CCCCCn1c(-c2ccccc2)n[nH]c1=S` [Compound 45, 6-(3-Phenyl-5-sulfanylidene-4,5-dihydro-1H-1,2,4-triazol-4-yl)hexanoic acid] yielded a melting point of 136 to 137 °C. Moreover, the Ki on IMP-1 was greater than 100 µM. The Ki on VIM-2 is less than 1 µM. Moreover, at VIM-4, the “% inhibition VIM-4” value amounted to 85% at 100 μM. Besides, at NDM-1 (setting [3]), the “% inhibition NDM-1” value turned out to be 55% at 100 μM.

`O=C(O)c1ccccc1CCn1c(-c2ccc(Cl)s2)n[nH]c1=S` [Compound 27, 2-{2-[3-(5-chlorothiophen-2-yl)-5-sulfanylidene-4,5-dihydro-1H-1,2,4-triazol-4-yl]ethyl}benzoic acid] yielded a melting point of 240 to 241 °C. The compound also showed a Ki at IMP-1 greater than 100 µM. Also, the Ki at VIM-2 was 1 to 10 µM. The “% inhibition VIM-4” value at VIM-4 is listed as 85% at 100 μM. The same compound displayed a Ki at NDM-1 greater than 100 µM.

`O=C(O)c1ccccc1CCn1c(-c2ccc3ccccc3c2)n[nH]c1=S` [Compound 3, 2-{2-[3-(naphthalen-2-yl)-5-sulfanylidene-4,5-dihydro-1H-1,2,4-triazol-4-yl]ethyl}benzoic acid] displayed a melting point of 240 to 241 °C. Moreover, the Ki at IMP-1 fell in the range of 10 to 100 µM. In addition, at VIM-2, the Ki is less than 1 µM. Besides, on VIM-4, the “% inhibition VIM-4” value was found to be 75% at 100 μM. Also, the “% inhibition NDM-1” value on NDM-1 (setting [4]) is recorded as 60% at 200 μM. Moreover, the Ki on VIM-1 is greater than 100 µM.

Turning to `COc1cccc(-c2n[nH]c(=S)n2CCc2ccccc2C(=O)O)c1` [Compound 22, 2-{2-[3-(3-methoxyphenyl)-5-sulfanylidene-4,5-dihydro-1H-1,2,4-triazol-4-yl]ethyl}benzoic acid], the melting point fell in the range of 197 to 198 °C. Moreover, the Ki at IMP-1 is greater than 100 µM. Besides, the Ki at VIM-2 is less than 1 µM. Also, the “% inhibition VIM-4” value on VIM-4 stood at 80% at 100 μM. At NDM-1, this compound showed a Ki greater than 100 µM.

`O=C(O)CC(Cn1c(-c2ccccc2)n[nH]c1=S)c1ccc(Cl)cc1` (centres unmarked) [Compound 21, 3-(4-chlorophenyl)-4-(3-phenyl-5-sulfanylidene-4,5-dihydro-1H-1,2,4-triazol-4-yl)butanoic acid] gave a melting point of 153 to 154 °C. This compound also showed a Ki on IMP-1 greater than 100 µM. Moreover, the Ki on VIM-2 lay in the range of 1 to 10 µM. For the same compound, the “% inhibition VIM-4” value on VIM-4 is listed as 95% at 100 μM. At NDM-1, this compound displayed a Ki greater than 100 µM. This compound yielded a Ki at VIM-1 greater than 100 µM.

Turning to `O=C(O)c1ccccc1CCn1c(C23CC4CC(CC(C4)C2)C3)n[nH]c1=S` [Compound 35, 2-{2-[3-(adamantan-1-yl)-5-sulfanylidene-4,5-dihydro-1H-1,2,4-triazol-4-yl]ethyl}benzoic acid], the melting point is greater than 250 °C. On IMP-1, this compound gave a Ki greater than 100 µM. For the same compound, on VIM-2, the Ki fell in the range of 1 to 10 µM. Also, the “% inhibition VIM-4” value on VIM-4 amounted to 55% at 100 μM. On NDM-1, this compound came in with a Ki greater than 100 µM.

Compound `O=C(O)C1CCCC(n2c(-c3ccccc3)n[nH]c2=S)C1` (centres unmarked) [Compound 47, 3-(3-Phenyl-5-sulfanylidene-4,5-dihydro-1H-1,2,4-triazol-4-yl)cyclohexane-1-carboxylic acid] returned a melting point of 234 to 235 °C. The same compound returned a Ki at IMP-1 greater than 100 µM. Further, the “% inhibition VIM-2” value at VIM-2 (setting [3]) was determined as 60% at 100 μM. In addition, at VIM-4, the “% inhibition VIM-4” value is 70% at 100 μM. On NDM-1, this compound showed a Ki greater than 100 µM.

In turn, `COc1ccc(O)c(-c2n[nH]c(=S)n2CCCCC(=O)O)c1` [Compound 29, 5-[3-(2-hydroxy-5-methoxyphenyl)-5-sulfanylidene-4,5-dihydro-1H-1,2,4-triazol-4-yl]pentanoic acid] came in with a melting point of 155 to 156 °C. On IMP-1, this compound returned a Ki greater than 100 µM. Moreover, the “% inhibition VIM-2” value on VIM-2 (setting [4]) came out at 60% at 200 μM. Further, the “% inhibition VIM-4” value on VIM-4 amounted to 90% at 100 μM. The same compound returned a Ki on NDM-1 greater than 100 µM.

The compound `CCCCn1c(-c2ccccc2)n[nH]c1=S` [Compound 32, 4-butyl-3-phenyl-4,5-dihydro-1H-1,2,4-triazole-5-thione] showed a melting point of 128 to 129 °C. Also, the Ki on IMP-1 fell in the range of 10 to 100 µM. For the same compound, the Ki on VIM-2 was 1 to 10 µM. Moreover, on VIM-4, the “% inhibition VIM-4” value is 75% at 100 μM. For the same compound, the Ki on NDM-1 was greater than 100 µM.

In the case of `CC(C)(C)OC(=O)NC(CCCn1c(-c2ccccc2)n[nH]c1=S)C(=O)O` (centres unmarked) [Compound 25, 2-{[(tert-butoxy)carbonyl]amino}-5-(3-phenyl-5-sulfanylidene-4,5-dihydro-1H-1,2,4-triazol-4-yl)pentanoic acid], the melting point is 105 to 106 °C. The Ki at IMP-1 is greater than 100 µM. Also, the Ki on VIM-2 was in the range of 1 to 10 µM. Moreover, the “% inhibition VIM-4” value at VIM-4 is recorded as 85% at 100 μM. This compound also returned a Ki on NDM-1 greater than 100 µM.

Regarding `COc1cccc(-c2n[nH]c(=S)n2CCCC(=O)O)c1` [Compound 24, 4-[3-(3-methoxyphenyl)-5-sulfanylidene-4,5-dihydro-1H-1,2,4-triazol-4-yl]butanoic acid], the melting point was 159 to 160 °C. For the same compound, the Ki at IMP-1 was greater than 100 µM. Also, the “% inhibition VIM-2” value on VIM-2 (setting [4]) worked out at 70% at 200 μM. Also, the “% inhibition VIM-4” value at VIM-4 is recorded as 85% at 100 μM. For the same compound, the Ki on NDM-1 was greater than 100 µM.

For the compound `O=C(O)CCCn1c(-c2ccc3ccccc3n2)n[nH]c1=S` [Compound 50, 4-[3-(Quinolin-2-yl)-5-sulfanylidene-4,5-dihydro-1H-1,2,4-triazol-4-yl]butanoic acid], the melting point is 238 to 239 °C. Further, the Ki on IMP-1 is greater than 100 µM. Also, the “% inhibition VIM-2” value at VIM-2 (setting [4]) was 80% at 200 μM. Besides, the “% inhibition VIM-4” value at VIM-4 turned out to be 85% at 100 μM. Also, at NDM-1 (setting [4]), the “% inhibition NDM-1” value is on record as 50% at 200 μM.

Compound `O=C(O)C1CCC(Cn2c(-c3ccccc3)n[nH]c2=S)CC1` (centres unmarked) [Compound 34, 4-[(3-phenyl-5-sulfanylidene-4,5-dihydro-1H-1,2,4-triazol-4-yl)methyl]cyclohexane-1-carboxylic acid] came in with a melting point of 207 to 208 °C. At IMP-1, this compound yielded a Ki greater than 100 µM. Also, on VIM-2 (setting [4]), the “% inhibition VIM-2” value turned out to be 75% at 200 μM. Also, on VIM-4, the “% inhibition VIM-4” value is 90% at 100 μM. For the same compound, the inhibition constant Ki on NDM-1 is greater than 100 µM.
